Earlier results in US7323476B2, “Myriceric acid derivatives for the treatment of cancer, cardiovascular and inflammatory diseases” (SaviPu Pharmaceuticals, priority 2006, dated 2008).

Key:
NF-κB = settings: qualitative statement on natural products of Fig. R
endothelin receptor = settings: qualitative, earlier studies

Compound	inhibition of NF-κB (NF-κB)	binding to the endothelin receptor (endothelin receptor)
COc1c(O)cc(O)c2c(=O)cc(-c3ccccc3)oc12 [wogonin]	good activity	
Theaflavin-3,3′-digallate	potent inhibitor	
myriceric acid A [PM2011A]		already been demonstrated
